According to patent US11427615B2, “Peptide compound and application thereof, and composition containing peptide compound” (XDCEXPLORER (SHANGHAI) CO., LTD., priority 2017, dated 2022):
Starred links: 1 amine or outer side, 2 acyl side, 3 side chain; linkers in the order of their positions; H or OH if unused. Non-standard residues stand in square brackets, D forms with d. Residues, ends and D or L forms follow the SMILES beside them. X11 = O=C(c1nnc([C@H](Cc2ccccc2)N[*:1])[nH]1)[*:2]; X14 = O=C(c1cnc([C@H](Cc2ccccc2)N[*:1])[nH]1)[*:2]; dPhe(2,4-Cl2) = N[C@H](Cc1ccc(Cl)cc1Cl)C(=O)O; dPhe(3-Cl) = N[C@H](Cc1cccc(Cl)c1)C(=O)O; dPhe(4-Cl) = N[C@H](Cc1ccc(Cl)cc1)C(=O)O; X12 = O=C([C@@H]1Cc2ccccc2N1[*:1])[*:2]; Ala(2-furyl) = N[C@@H](Cc1ccco1)C(=O)O; Phe(4-F) = N[C@@H](Cc1ccc(F)cc1)C(=O)O; Pro(4,4-F2) = O=C(O)[C@@H]1CC(F)(F)CN1; dAla(2-furyl) = N[C@H](Cc1ccco1)C(=O)O; dPhe(4-F) = N[C@H](Cc1ccc(F)cc1)C(=O)O; Arg(Me) = CNC(=N)NCCC[C@H](N)C(=O)O; Hyp = O=C(O)[C@@H]1C[C@@H](O)CN1; azaPro = O=C(N1CCCN1[*:1])[*:2]; 2Thi = N[C@@H](Cc1cccs1)C(=O)O; Pip = O=C(O)[C@@H]1CCCCN1; Ac6c = NC1(C(=O)O)CCCCC1; Aze = O=C(O)[C@@H]1CCN1; azaGly = NNC(=O)O

Target: T1, human kiss1 receptor (GPR54) (Homo sapiens, UniProt Q969F8)
T1 construct: host or cells: NFAT-bla CHO-K1 cells (Chinese hamster ovary), purchased recombinant cell line
Experiment: Kiss1 receptor (GPR54) binding activity of agonists, FRET detection in NFAT-bla CHO-K1 cells
Format: cell-based
Conditions: GPR54; measured according to the method of effect Embodiment 1; preliminary data; read-out: Preliminary measurement data (GPR54) EC50

T1 sequence (Q969F8 whole entry): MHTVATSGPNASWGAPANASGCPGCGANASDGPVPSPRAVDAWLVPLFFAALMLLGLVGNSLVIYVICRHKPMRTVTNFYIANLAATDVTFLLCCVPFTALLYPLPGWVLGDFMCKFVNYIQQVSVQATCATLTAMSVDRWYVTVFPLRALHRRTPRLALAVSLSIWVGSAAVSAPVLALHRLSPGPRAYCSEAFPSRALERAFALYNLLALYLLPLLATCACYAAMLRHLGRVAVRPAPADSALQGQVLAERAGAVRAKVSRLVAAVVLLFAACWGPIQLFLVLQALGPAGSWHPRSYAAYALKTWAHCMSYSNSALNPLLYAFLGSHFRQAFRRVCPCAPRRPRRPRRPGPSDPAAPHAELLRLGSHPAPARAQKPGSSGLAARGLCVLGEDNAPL

Row | SMILES | EC50
1 | CNC(=N)NCCC[C@H](NC(=O)[C@H](CC(C)C)NC(=O)C1(NC(=O)[C@H](Cc2ccccc2)NC(=O)[C@@H](NC(=O)[C@H](CC(N)=O)NC(=O)[C@@H]2C[C@@H](O)CN2C(=O)[C@@H](Cc2ccco2)NC(C)=O)[C@@H](C)O)CCCCC1)C(=O)N[C@@H](Cc1c[nH]c2ccccc12)C(N)=O [YA-197, Ac-(D-2Fua)-Hyp-Asn-Thr-Phe-A6c-Leu-Arg(Me)-Trp-NH2] (Ac-[dAla(2-furyl)][Hyp]NTF[Ac6c]L[Arg(Me)]W-NH2) | 0.57 nM
2 | CNC(=N)NCCC[C@H](NC(=O)[C@H](CC(C)C)NC(=O)C1(NC(=O)[C@H](Cc2ccccc2)NC(=O)[C@@H](NC(=O)[C@H](CC(N)=O)NC(=O)[C@@H]2C[C@@H](O)CN2C(=O)[C@H](Cc2ccc(F)cc2)NC(C)=O)[C@@H](C)O)CCCCC1)C(=O)N[C@@H](Cc1c[nH]c2ccccc12)C(N)=O [YA-198, Ac-Phe(4-F)-Hyp-Asn-Thr-Phe-A6c-Leu-Arg(Me)-Trp-NH2] (Ac-[Phe(4-F)][Hyp]NTF[Ac6c]L[Arg(Me)]W-NH2) | 382 nM
3 | CNC(=N)NCCC[C@H](NC(=O)[C@H](CC(C)C)NC(=O)C1(NC(=O)[C@H](Cc2ccccc2)NC(=O)[C@@H](NC(=O)[C@H](CC(N)=O)NC(=O)[C@H](Cc2cccs2)NC(=O)[C@@H](Cc2ccc(F)cc2)NC(C)=O)[C@@H](C)O)CCCCC1)C(=O)N[C@@H](Cc1c[nH]c2ccccc12)C(N)=O [YA-199, Ac-[D-Phe(4-F)]-Thi-Asn-Thr-Phe-A6c-Leu-Arg(Me)-Trp-NH2] (Ac-[dPhe(4-F)][2Thi]NTF[Ac6c]L[Arg(Me)]W-NH2) | 15.6 nM
4 | CNC(=N)NCCC[C@H](NC(=O)[C@H](CC(C)C)NC(=O)C1(NC(=O)[C@H](Cc2ccccc2)NC(=O)[C@@H](NC(=O)[C@H](CC(N)=O)NC(=O)N2CCCN2C(=O)[C@@H](Cc2ccc(Cl)cc2Cl)NC(C)=O)[C@@H](C)O)CCCCC1)C(=O)N[C@@H](Cc1c[nH]c2ccccc12)C(N)=O [YA-200, Ac-D-Phe(2,4-DiCl)-azaPro-Asn-Thr-Phe-A6c-Leu-Arg(Me)-Trp-NH2] (Ac-[dPhe(2,4-Cl2)][azaPro]NTF[Ac6c]L[Arg(Me)]W-NH2) | 25.4 nM
5 | CNC(=N)NCCC[C@H](NC(=O)[C@H](CC(C)C)NC(=O)C1(NC(=O)[C@H](Cc2ccccc2)NC(=O)[C@@H](NC(=O)[C@H](CC(N)=O)NC(=O)[C@@H]2CCCCN2C(=O)[C@H](Cc2ccc(F)cc2)NC(C)=O)[C@@H](C)O)CCCCC1)C(=O)N[C@@H](Cc1c[nH]c2ccccc12)C(N)=O [YA-202, Ac-Phe(4-F)-(S-Pip)-Asn-Thr-Phe-A6c-Leu-Arg(Me)-Trp-NH2] (Ac-[Phe(4-F)][Pip]NTF[Ac6c]L[Arg(Me)]W-NH2) | 9.6 nM
6 | CNC(=N)NCCC[C@H](NC(=O)[C@H](CC(C)C)NC(=O)[C@@H]1CCN1C(=O)[C@H](Cc1ccccc1)NC(=O)[C@H](Cc1ccco1)NC(=O)[C@H](CC(N)=O)NC(=O)[C@@H]1C[C@@H](O)CN1C(=O)[C@@H](Cc1ccc(O)cc1)NC(C)=O)C(=O)N[C@@H](Cc1c[nH]c2ccccc12)C(N)=O [YA-203, Ac-(D-Tyr)-Hyp-Asn-2Fua-Phe-Aze-Leu-Arg(Me)-Trp-NH2] (Ac-[dY][Hyp]N[Ala(2-furyl)]F[Aze]L[Arg(Me)]W-NH2) | 1.19 nM
7 | CNC(=N)NCCC[C@H](NC(=O)[C@H](CC(C)C)NC(=O)[C@@H]1CCN1C(=O)[C@H](Cc1ccccc1)NC(=O)[C@H](Cc1ccco1)NC(=O)[C@H](CC(N)=O)NC(=O)[C@H](Cc1cccs1)NC(=O)[C@@H](Cc1ccc(O)cc1)NC(C)=O)C(=O)N[C@@H](Cc1c[nH]c2ccccc12)C(N)=O [YA-204, Ac-(D-Tyr)-Thi-Asn-2Fua-Phe-Aze-Leu-Arg(Me)-Trp-NH2] (Ac-[dY][2Thi]N[Ala(2-furyl)]F[Aze]L[Arg(Me)]W-NH2) | 8.72 nM
8 | CNC(=N)NCCC[C@H](NC(=O)[C@H](CC(C)C)NC(=O)[C@@H]1CCN1C(=O)[C@H](Cc1ccccc1)NC(=O)[C@H](Cc1ccco1)NC(=O)[C@H](CC(N)=O)NC(=O)[C@@H]1CC(F)(F)CN1C(=O)[C@@H](Cc1ccc(O)cc1)NC(C)=O)C(=O)N[C@@H](Cc1c[nH]c2ccccc12)C(N)=O [YA-205, Ac-(D-Tyr)-DiFluorPro-Asn-2Fua-Phe-Aze-Leu-Arg(Me)-Trp-NH2] (Ac-[dY][Pro(4,4-F2)]N[Ala(2-furyl)]F[Aze]L[Arg(Me)]W-NH2) | 50.3 nM
9 | CNC(=N)NCCC[C@H](NC(=O)[C@H](CC(C)C)NC(=O)C1(NC(=O)[C@H](Cc2ccccc2)NC(=O)[C@@H](NC(=O)[C@H](CC(N)=O)NC(=O)[C@H](Cc2cccs2)NC(=O)[C@@H](Cc2ccc(Cl)cc2Cl)NC(C)=O)[C@@H](C)O)CCCCC1)C(=O)N[C@@H](Cc1c[nH]c2ccccc12)C(N)=O [YA-206, Ac-[D-Phe(2,4-DiCl)]-Thi-Asn-Thr-Phe-A6c-Leu-Arg(Me)-Trp-NH2] (Ac-[dPhe(2,4-Cl2)][2Thi]NTF[Ac6c]L[Arg(Me)]W-NH2) | 3.6 nM
10 | CNC(=N)NCCC[C@H](NC(=O)[C@H](CC(C)C)NC(=O)C1(NC(=O)[C@H](Cc2ccccc2)NC(=O)[C@@H](NC(=O)[C@H](CC(N)=O)NC(=O)[C@H](Cc2c[nH]c3ccccc23)NC(=O)[C@H](Cc2cccs2)NC(=O)[C@@H](Cc2ccc(Cl)cc2Cl)NC(C)=O)[C@@H](C)O)CCCCC1)C(=O)N[C@@H](Cc1c[nH]c2ccccc12)C(N)=O [YA-207, Ac-[D-Phe(2,4-DiCl)]-Thi-Trp-Asn-Thr-Phe-A6c-Leu-Arg(Me)-Trp-NH2] (Ac-[dPhe(2,4-Cl2)][2Thi]WNTF[Ac6c]L[Arg(Me)]W-NH2) | 90 nM
11 | CNC(=N)NCCC[C@H](NC(=O)[C@H](CC(C)C)NC(=O)c1cnc([C@H](Cc2ccccc2)NC(=O)[C@@H](NC(=O)[C@H](CC(N)=O)NC(=O)[C@@H]2C[C@@H](O)CN2C(=O)[C@@H](Cc2ccc(O)cc2)NC(C)=O)[C@@H](C)O)[nH]1)C(=O)N[C@@H](Cc1c[nH]c2ccccc12)C(N)=O [YA-208, Ac-(D-Tyr)-Hyp-Asn-Thr-{(S)-2-(1-amino-2-phenylethyl)-1H-imidazole-5-carboxylic acid}-Leu-Arg(Me)-Trp-NH2] (Ac-[dY][Hyp]NT[X14]L[Arg(Me)]W-NH2) | 1.09 nM
12 | CNC(=N)NCCC[C@H](NC(=O)[C@H](CC(C)C)NC(=O)c1nnc([C@H](Cc2ccccc2)NC(=O)[C@@H](NC(=O)[C@H](CC(N)=O)NC(=O)[C@@H]2C[C@@H](O)CN2C(=O)[C@@H](Cc2ccc(O)cc2)NC(C)=O)[C@@H](C)O)[nH]1)C(=O)N[C@@H](Cc1c[nH]c2ccccc12)C(N)=O [YA-209, Ac-(D-Tyr)-Hyp-Asn-Thr-{(S)-5-(1-amino-2-phenylethyl)-4H-1,2,4-triazole-3-carboxylic acid}-Leu-Arg(Me)-Trp-NH2] (Ac-[dY][Hyp]NT[X11]L[Arg(Me)]W-NH2) | 1.4 nM
13 | CNC(=N)NCCC[C@H](NC(=O)[C@H](CC(C)C)NC(=O)C1(NC(=O)[C@H](Cc2ccccc2)NC(=O)[C@@H](NC(=O)[C@H](CC(N)=O)NC(=O)[C@@H]2CCCCN2C(=O)[C@@H](Cc2ccc(F)cc2)NC(C)=O)[C@@H](C)O)CCCCC1)C(=O)N[C@@H](Cc1c[nH]c2ccccc12)C(N)=O [YA-210, Ac-[D-Phe(4-F)]-(S-Pip)-Asn-Thr-Phe-A6c-Leu-Arg(Me)-Trp-NH2] (Ac-[dPhe(4-F)][Pip]NTF[Ac6c]L[Arg(Me)]W-NH2) | 1.47 nM
14 | CNC(=N)NCCC[C@H](NC(=O)[C@H](CC(C)C)NC(=O)[C@@H]1CCN1C(=O)[C@H](Cc1ccccc1)NC(=O)[C@@H](NC(=O)[C@H](CC(N)=O)NC(=O)[C@@H]1CCCCN1C(=O)[C@@H](Cc1ccc(F)cc1)NC(C)=O)[C@@H](C)O)C(=O)N[C@@H](Cc1c[nH]c2ccccc12)C(N)=O [YA-211, Ac-[D-Phe(4-F)]-(S-Pip)-Asn-Thr-Phe-Aze-Leu-Arg(Me)-Trp-NH2] (Ac-[dPhe(4-F)][Pip]NTF[Aze]L[Arg(Me)]W-NH2) | 1.13 nM
15 | CNC(=N)NCCC[C@H](NC(=O)[C@H](CC(C)C)NC(=O)C1(NC(=O)[C@H](Cc2ccccc2)NC(=O)[C@@H](NC(=O)[C@H](CC(N)=O)NC(=O)[C@@H]2CC(F)(F)CN2C(=O)[C@@H](Cc2ccc(F)cc2)NC(C)=O)[C@@H](C)O)CCCCC1)C(=O)N[C@@H](Cc1c[nH]c2ccccc12)C(N)=O [YA-212, Ac-[D-Phe(4-F)]-Pro(diF)-Asn-Thr-Phe-A6c-Leu-Arg(Me)-Trp-NH2] (Ac-[dPhe(4-F)][Pro(4,4-F2)]NTF[Ac6c]L[Arg(Me)]W-NH2) | 0.5 nM
16 | CNC(=N)NCCC[C@H](NC(=O)[C@H](CC(C)C)NC(=O)[C@@H]1CCN1C(=O)[C@H](Cc1ccccc1)NC(=O)[C@@H](NC(=O)[C@H](CC(N)=O)NC(=O)[C@@H]1CC(F)(F)CN1C(=O)[C@@H](Cc1ccc(F)cc1)NC(C)=O)[C@@H](C)O)C(=O)N[C@@H](Cc1c[nH]c2ccccc12)C(N)=O [YA-213, Ac-[D-Phe(4-F)]-Pro(diF)-Asn-Thr-Phe-Aze-Leu-Arg(Me)-Trp-NH2] (Ac-[dPhe(4-F)][Pro(4,4-F2)]NTF[Aze]L[Arg(Me)]W-NH2) | 0.4 nM
17 | CNC(=N)NCCC[C@H](NC(=O)[C@H](CC(C)C)NC(=O)NNC(=O)[C@H](Cc1ccccc1)NC(=O)[C@@H](NC(=O)[C@H](CC(N)=O)NC(=O)[C@@H]1C[C@@H](O)CN1C(=O)[C@@H](Cc1ccc(Cl)cc1)NC(C)=O)[C@@H](C)O)C(=O)N[C@@H](Cc1c[nH]c2ccccc12)C(N)=O [YA-214, Ac-[D-Phe(4-Cl)]-Hyp-Asn-Thr-Phe-azaGly-Leu-Arg(Me)-Trp-NH2] (Ac-[dPhe(4-Cl)][Hyp]NTF[azaGly]L[Arg(Me)]W-NH2) | 0.083 nM
18 | CNC(=N)NCCC[C@H](NC(=O)[C@H](CC(C)C)NC(=O)NNC(=O)[C@H](Cc1ccccc1)NC(=O)[C@@H](NC(=O)[C@H](CC(N)=O)NC(=O)[C@@H]1C[C@@H](O)CN1C(=O)[C@@H](Cc1cccc(Cl)c1)NC(C)=O)[C@@H](C)O)C(=O)N[C@@H](Cc1c[nH]c2ccccc12)C(N)=O [YA-215, Ac-[D-Phe(3-Cl)]-Hyp-Asn-Thr-Phe-azaGly-Leu-Arg(Me)-Trp-NH2] (Ac-[dPhe(3-Cl)][Hyp]NTF[azaGly]L[Arg(Me)]W-NH2) | 0.122 nM
19 | CNC(=N)NCCC[C@H](NC(=O)[C@H](CC(C)C)NC(=O)[C@@H]1Cc2ccccc2N1C(=O)[C@H](Cc1ccccc1)NC(=O)[C@@H](NC(=O)[C@H](CC(N)=O)NC(=O)[C@@H]1C[C@@H](O)CN1C(=O)[C@@H](Cc1ccc(O)cc1)NC(C)=O)[C@@H](C)O)C(=O)N[C@@H](Cc1c[nH]c2ccccc12)C(N)=O [YA-221, Ac-D-Tyr-Hyp-Asn-Thr-Phe-Ind-Leu-Arg(Me)-Trp-NH2] (Ac-[dY][Hyp]NTF[X12]L[Arg(Me)]W-NH2) | 0.64 nM
